Measured values from patent US5605895A, “Cephalosporin antibiotics and processes for preparation thereof” (Lucky, Ltd., priority 1993, dated 1997).
In brackets after ≈: the same amount, converted by molar mass. Like-named read-outs stand apart in the source and are kept apart here.

Experiments:
E. coli 10536 = experiment: Minimum inhibitory concentration, agar dilution; format: cell-based; settings: read-out: Minimum Inhibitory Concentration
Description: (§1) The minimum inhibitory concentration was determined by diluting the test compounds according to 2-fold dilution, suspending them in M uller-Hinton agar medium, inoculating the test strains having 10^7 CFU per 1 ml into the medium and then culturing the medium at 37° C. for 20 hours.

E. coli TEM5 3739E = experiment: Minimum inhibitory concentration, agar dilution; format: cell-based; settings: Escherichia coli, TEM53739E, 20 h, read-out: Minimum Inhibitory Concentration
Description: as §1

P. aeruginosa 10145 = experiment: Minimum inhibitory concentration, agar dilution; format: cell-based; settings: Pseudomonas aeruginosa, Muller-Hinton agar, 10^7 CFU per ml, 37° C., 20 hours
Description: as §1

A. calcoaceticus 15473A = experiment: Minimum inhibitory concentration, agar dilution; format: cell-based; settings: Acinetobacter calcoaceticus, Muller-Hinton agar, 10^7 CFU per ml, 37° C., 20 hours
Description: as §1

P. aeruginosa 1912E = experiment: Minimum inhibitory concentration, agar dilution; format: cell-based; settings: Pseudomonas aeruginosa, 20 h, read-out: Minimum Inhibitory Concentration
Description: as §1

S. typhimurium 14028A = experiment: Minimum inhibitory concentration, agar dilution; format: cell-based; settings: Salmonella enterica, read-out: Minimum Inhibitory Concentration
Description: as §1

E. cloacae 1194E = experiment: Minimum inhibitory concentration, agar dilution; format: cell-based; settings: Enterobacter cloacae, read-out: Minimum Inhibitory Concentration
Description: as §1

E. coli TEM9 2639E = experiment: Minimum inhibitory concentration, agar dilution; format: cell-based; settings: Escherichia coli, TEM92639E, 20 h, read-out: Minimum Inhibitory Concentration
Description: as §1

P. aeruginosa 6065Y = experiment: Minimum inhibitory concentration, agar dilution; format: cell-based; settings: Pseudomonas aeruginosa, 20 h, read-out: Minimum Inhibitory Concentration
Description: as §1

E. coli TEM1 1193E = experiment: Minimum inhibitory concentration, agar dilution; format: cell-based; settings: Escherichia coli, TEM11193E, 20 h, read-out: Minimum Inhibitory Concentration
Description: as §1

S. aureus 6538pA = experiment: Minimum inhibitory concentration, agar dilution; format: cell-based; settings: Staphylococcus aureus, Muller-Hinton agar, 10^7 CFU per ml, 37° C., 20 hours
Description: as §1

S. faecalis 29212A = experiment: Minimum inhibitory concentration, agar dilution; format: cell-based; settings: Enterococcus faecalis, read-out: Minimum Inhibitory Concentration
Description: as §1

K. aerogenes 1976E = experiment: Minimum inhibitory concentration, agar dilution; format: cell-based; settings: Klebsiella aerogenes, Muller-Hinton agar, 10^7 CFU per ml, 37° C., 20 hours
Description: as §1

E. coli 3190Y = experiment: Minimum inhibitory concentration, agar dilution; format: cell-based; settings: Escherichia coli, read-out: Minimum Inhibitory Concentration
Description: as §1

S. marcescens 1826E = experiment: Minimum inhibitory concentration, agar dilution; format: cell-based; settings: Serratia marcescens, Muller-Hinton agar, 10^7 CFU per ml, 37° C., 20 hours
Description: as §1

S. aureus giorigio = experiment: Minimum inhibitory concentration, agar dilution; format: cell-based; settings: Staphylococcus aureus, Muller-Hinton agar, 10^7 CFU per ml, 37° C., 20 hours
Description: as §1

[1] = Pharmacokinetic properties in SD rats; format: in vivo; settings: rat; SD rats (male), intravenous, 20 mg/kg; blood, biological assay (agar well method)
Description: The pharmacokinetic properties of the compound of the present invention were determined using SD rats (.male.) weighing 220 to 340 g. Specifically, the test samples were administered in intravenous route in an amount of 20 mg/kg to 2 to 5 test animals. Blood was taken from femoral vein every hours after the administration and then subjected to a biological assay using agar well method to measure the blood concentration. The results of pharmacokinetic properties calculated from the above blood concentration are described in the following Table 3.

[2] = Escherichia coli, E. coli 10536, Muller-Hinton agar, 10^7 CFU per ml, 37° C., 20 hours
[3] = S. typhimurium 14028A, Muller-Hinton agar, 10^7 CFU per ml, 37° C., 20 hours
[4] = S. faecalis 29212A, Muller-Hinton agar, 10^7 CFU per ml, 37° C., 20 hours
[5] = E. coli 3190Y, Muller-Hinton agar, 10^7 CFU per ml, 37° C., 20 hours

Row | SMILES | MIC (E. coli 10536; [2]) | MIC (E. coli TEM5 3739E) | MIC (P. aeruginosa 10145) | MIC (A. calcoaceticus 15473A) | MIC (P. aeruginosa 1912E) | MIC (E. cloacae 1194E; 1194E, 20 h) | MIC (E. coli TEM9 2639E) | MIC (P. aeruginosa 6065Y) | MIC (E. coli TEM1 1193E) | MIC (S. aureus 6538pA) | MIC (S. faecalis 29212A; [4]) | MIC (K. aerogenes 1976E) | MIC (E. coli 3190Y; 3190Y, 20 h) | MIC (S. marcescens 1826E) | MIC (S. aureus giorigio) | AUC [1] | half-life [1] | MIC (S. typhimurium 14028A; TYPHIMURIUM, 20 h) | MIC (S. faecalis 29212A; 29212A, 20 h) | further results
1 | Nc1cc[n+](N)c(SCC2=C(C(=O)[O-])N3C(=O)C(NC(=O)C(=NOC(C(=O)O)c4ccc(O)c(O)c4)c4csc(N)n4)C3SC2)n1 (stereo not drawn) [I-4(a), 7-[(Z)-2-(2-aminothiazol-4-yl)-2-(α-carboxy-3,4-dihydroxybenzyloxyimino)acetamide]-3-(1,4-diaminopyrimidinium-2-yl)thiomethyl-3-cephem-4-carboxylate] | 0.016 µg/mL (≈ 0.0232 µM) | 0.5 µg/mL (≈ 0.725 µM) | 0.25 µg/mL (≈ 0.362 µM) | 0.25 µg/mL (≈ 0.362 µM) | 0.25 µg/mL (≈ 0.362 µM) | 1 µg/mL (≈ 1.45 µM) | 1 µg/mL (≈ 1.45 µM) | 0.5 µg/mL (≈ 0.725 µM) | 0.063 µg/mL (≈ 0.0913 µM) | 1 µg/mL (≈ 1.45 µM) | 64 µg/mL (≈ 92.8 µM) | 0.13 µg/mL (≈ 0.188 µM) | 0.063 µg/mL (≈ 0.0913 µM) | 0.25 µg/mL (≈ 0.362 µM) | 0.5 µg/mL (≈ 0.725 µM) | 52900 ng·h/mL | 50 min | – | – | MIC (S. typhimurium 14028A; [3]): 0.031 µg/mL (≈ 0.0449 µM)
2 | C[n+]1ccc(N)nc1SCC1=C(C(=O)[O-])N2C(=O)C(NC(=O)/C(=N\OC(C(=O)O)c3ccc(O)c(O)c3)c3csc(N)n3)[C@H]2SC1 (stereo partly drawn) [I-5(a), 7-[(Z)-2-(2-aminothiazol-4-yl)-2-(α-carboxy-3,4-dihydroxybenzyloxyimino)acetamido]-3-(4-amino-1-methylpyrimidinium-2-yl)thiomethyl-3-cephem-4-carboxylate] | 0.031 µg/mL (≈ 0.045 µM) | 0.5 µg/mL (≈ 0.726 µM) | 0.5 µg/mL (≈ 0.726 µM) | 0.5 µg/mL (≈ 0.726 µM) | 0.5 µg/mL (≈ 0.726 µM) | 4 µg/mL (≈ 5.81 µM) | 2 µg/mL (≈ 2.9 µM) | 1 µg/mL (≈ 1.45 µM) | 0.063 µg/mL (≈ 0.0915 µM) | 0.5 µg/mL (≈ 0.726 µM) | 64 µg/mL (≈ 92.9 µM) | 0.25 µg/mL (≈ 0.363 µM) | 0.063 µg/mL (≈ 0.0915 µM) | 0.5 µg/mL (≈ 0.726 µM) | 0.25 µg/mL (≈ 0.363 µM) | 43600 ng·h/mL | 39 min | – | – | MIC (S. typhimurium 14028A; [3]): 0.031 µg/mL (≈ 0.045 µM)
3 | Cn1c(N)n[n+]2c(SCC3=C(C(=O)[O-])N4C(=O)C(NC(=O)C(=NOC(C(=O)O)c5ccc(O)c(O)c5)c5csc(N)n5)[C@H]4SC3)nc(N)cc12 (stereo partly drawn) [I-10(a), 7-[(Z)-2-(2-aminothiazol-4-yl)-2-(α-carboxy-3,4-dihydroxybenzyloxyimino)acetamido]-3-(2,7-diamino-1-methyl[1,2,4]triazolo[1,5-c]pyrimidinium-5-yl)thiomethyl-3-cephem-4-carboxylate] | 0.016 µg/mL (≈ 0.0215 µM) | 0.25 µg/mL (≈ 0.336 µM) | 0.25 µg/mL (≈ 0.336 µM) | 0.5 µg/mL (≈ 0.672 µM) | 0.5 µg/mL (≈ 0.672 µM) | 1 µg/mL (≈ 1.34 µM) | 1 µg/mL (≈ 1.34 µM) | 0.5 µg/mL (≈ 0.672 µM) | 0.063 µg/mL (≈ 0.0847 µM) | 0.5 µg/mL (≈ 0.672 µM) | 8 µg/mL (≈ 10.8 µM) | 0.13 µg/mL (≈ 0.175 µM) | – | 0.25 µg/mL (≈ 0.336 µM) | 0.25 µg/mL (≈ 0.336 µM) | 66000 ng·h/mL | 58 min | 0.063 µg/mL (≈ 0.0847 µM) | – | MIC (E. coli 3190Y; [5]): 0.031 µg/mL (≈ 0.0417 µM)
4 | Nc1nc(C(=NOC(C(=O)O)c2ccc(O)c(O)c2)C(=O)NC2C(=O)N3C(C(=O)[O-])=C(CSc4nc(N)c5c([n+]4N)CCC5)CSC23)cs1 (stereo not drawn) [I-8(a), 7-[(Z)-2-(2-aminothiazol-4-yl)-2-(α-carboxy-3,4-dihydroxybenzyloxyimino)acetamido]-3-(1,4-diamino-1,5,6,7-tetrahydrocyclopentapyrimidin-2-yl) thiomethyl-3-cephem-4-carboxylate] | 0.031 µg/mL (≈ 0.0425 µM) | 0.5 µg/mL (≈ 0.685 µM) | 0.5 µg/mL (≈ 0.685 µM) | 0.25 µg/mL (≈ 0.343 µM) | 0.5 µg/mL (≈ 0.685 µM) | 2 µg/mL (≈ 2.74 µM) | 1 µg/mL (≈ 1.37 µM) | 1 µg/mL (≈ 1.37 µM) | 0.063 µg/mL (≈ 0.0863 µM) | 0.5 µg/mL (≈ 0.685 µM) | – | 0.13 µg/mL (≈ 0.178 µM) | – | 0.5 µg/mL (≈ 0.685 µM) | 0.063 µg/mL (≈ 0.0863 µM) | 64500 ng·h/mL | 53 min | 0.063 µg/mL (≈ 0.0863 µM) | 16 µg/mL (≈ 21.9 µM) | MIC (E. coli 3190Y; [5]): 0.031 µg/mL (≈ 0.0425 µM)
5 | C[n+]1cc(CS(=O)(=O)O)c(N)nc1SCC1=C(C(=O)[O-])N2C(=O)C(NC(=O)/C(=N\OC(C(=O)O)c3ccc(O)c(O)c3)c3csc(N)n3)[C@H]2SC1 (stereo partly drawn) [I-7(a), 7-[(Z)-2-(2-aminothiazol-4-yl)-2-(α-carboxy-3,4-dihydroxybenzyloxyimino)acetamido]-3-(1-methyl-4-amino-5-sulfomethylpyrimidinium-2-yl)thiomethyl-3-cephem-4-carboxylate] | 0.031 µg/mL (≈ 0.0396 µM) | 0.5 µg/mL (≈ 0.639 µM) | 0.25 µg/mL (≈ 0.319 µM) | 0.5 µg/mL (≈ 0.639 µM) | – | – | 4 µg/mL (≈ 5.11 µM) | – | 0.13 µg/mL (≈ 0.166 µM) | 2 µg/mL (≈ 2.55 µM) | – | 0.5 µg/mL (≈ 0.639 µM) | 0.063 µg/mL (≈ 0.0805 µM) | 1 µg/mL (≈ 1.28 µM) | 2 µg/mL (≈ 2.55 µM) | 53100 ng·h/mL | 48 min | 0.5 µg/mL (≈ 0.639 µM) | 32 µg/mL (≈ 40.9 µM) | MIC (E. cloacae 1194E; E. cloacae 1194E, Muller-Hinton agar, 10^7 CFU per ml, 37° C., 20 hours): 8 µg/mL (≈ 10.2 µM)
6 | Cc1c(N)nc(SCC2=C(C(=O)[O-])N3C(=O)C(NC(=O)/C(=N\OC(C(=O)O)c4ccc(O)c(O)c4)c4csc(N)n4)[C@H]3SC2)[n+](N)c1N (stereo partly drawn) [I-1(a), 7-[(Z)-2-(2-aminothiazol-4-yl)-2-(α-carboxy-3,4-dihydroxybenzyloxyimino)acetamido]-3-(5-methyl-1,4,6-triaminopyrimidinium-2-yl)thiomethyl-3-cephem-4-carboxylate] | 0.013 µg/mL (≈ 0.0181 µM) | 0.25 µg/mL (≈ 0.348 µM) | 0.25 µg/mL (≈ 0.348 µM) | 0.5 µg/mL (≈ 0.696 µM) | 0.5 µg/mL (≈ 0.696 µM) | 1 µg/mL (≈ 1.39 µM) | 1 µg/mL (≈ 1.39 µM) | 0.5 µg/mL (≈ 0.696 µM) | 0.063 µg/mL (≈ 0.0877 µM) | 0.25 µg/mL (≈ 0.348 µM) | – | 0.13 µg/mL (≈ 0.181 µM) | 0.063 µg/mL (≈ 0.0877 µM) | 0.25 µg/mL (≈ 0.348 µM) | 0.13 µg/mL (≈ 0.181 µM) | 52500 ng·h/mL | 40 min | 0.063 µg/mL (≈ 0.0877 µM) | 16 µg/mL (≈ 22.3 µM) | –
7 | CC(C)(O/N=C(\C(=O)N[C@@H]1C(=O)N2C(C(=O)[O-])=C(C[n+]3ccccc3)CS[C@H]12)c1csc(N)n1)C(=O)O [CAZ, Ceftazidime, reference compound] | – | 8 µg/mL (≈ 14.6 µM) | 2 µg/mL (≈ 3.66 µM) | 2 µg/mL (≈ 3.66 µM) | 1 µg/mL (≈ 1.83 µM) | 128 µg/mL (≈ 234 µM) | > 128 µg/mL | 32 µg/mL (≈ 58.5 µM) | 0.25 µg/mL (≈ 0.457 µM) | 16 µg/mL (≈ 29.3 µM) | – | 0.25 µg/mL (≈ 0.457 µM) | 0.063 µg/mL (≈ 0.115 µM) | 0.25 µg/mL (≈ 0.457 µM) | 4 µg/mL (≈ 7.32 µM) | – | – | 0.25 µg/mL (≈ 0.457 µM) | > 128 µg/mL | MIC (E. coli 10536; Escherichia coli, 10536, 20 h): 0.13 µg/mL (≈ 0.238 µM)
